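The concentration for 50% growth inhibition is given as GI50. TGI marks complete inhibition of growth.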
Tests used:
Test in all cases: NCI anticancer screen, dose series, 384-well format
SK-MEL-2 melanoma = system: SK-MEL-2 melanoma
SK-OV-3 ovarian = system: SK-OV-3 ovarian
786-0 renal = system: 786-0 renal
HCT-15 colon = system: HCT-15 colon
K-562 leukemia = system: K-562 leukemia
OVCAR-4 ovarian = system: OVCAR-4 ovarian
OVCAR-8 ovarian = system: OVCAR-8 ovarian
MALME-3M melanoma = system: MALME-3M melanoma
DU-145 prostate = system: DU-145 prostate
MDA-MB-468 breast = system: MDA-MB-468 breast
HCT-116 colon = system: HCT-116 colon
OVCAR-3 ovarian = system: OVCAR-3 ovarian
U251 glioblastoma = system: U251 glioblastoma
M14 melanoma = system: M14 melanoma
MOLT-4 leukemia = system: MOLT-4 leukemia
ACHN renal = system: ACHN renal
SNB-75 CNS = system: SNB-75 CNS
HL-60(TB) leukemia = system: HL-60(TB) leukemia
A549 NSCLC = system: A549 NSCLC
MCF7 breast = system: MCF7 breast
HOP-92 NSCLC = system: HOP-92 NSCLC
NCI-H226 lung = system: NCI-H226 lung
IGROV1 ovarian = system: IGROV1 ovarian
UACC-257 melanoma = system: UACC-257 melanoma
NCI-H460 NSCLC = system: NCI-H460 NSCLC
SN12C renal = system: SN12C renal
NCI-H23 lung = system: NCI-H23 lung
RXF 393 renal = system: RXF 393 renal
NCI-H522 lung = system: NCI-H522 lung
HT29 colon = system: HT29 colon
COLO 205 colon = system: COLO 205 colon
NCI-H322M lung = system: NCI-H322M lung
UACC-62 melanoma = system: UACC-62 melanoma
HOP-62 NSCLC = system: HOP-62 NSCLC
HS 578T breast = system: HS 578T breast
SW-620 colon = system: SW-620 colon
KM12 colon = system: KM12 colon
SF-268 CNS = system: SF-268 CNS
UO-31 renal = system: UO-31 renal
OVCAR-5 ovarian = system: OVCAR-5 ovarian
A498 renal = system: A498 renal
MDA-MB-435 melanoma = system: MDA-MB-435 melanoma
SF-539 CNS = system: SF-539 CNS
SK-MEL-5 melanoma = system: SK-MEL-5 melanoma
SNB-19 CNS = system: SNB-19 CNS
SF-295 CNS = system: SF-295 CNS
CAKI-1 renal = system: CAKI-1 renal
SR leukemia = system: SR leukemia
PC-3 prostate = system: PC-3 prostate
BT-549 breast = system: BT-549 breast
MDA-MB-231 breast = system: MDA-MB-231 breast
EKVX NSCLC = system: EKVX NSCLC
SK-MEL-28 melanoma = system: SK-MEL-28 melanoma
TK-10 renal = system: TK-10 renal
T-47D breast = system: T-47D breast

COC1CCC(n2c([C@@H]3CCCC(=O)N3c3ccc(F)c(F)c3)nc3cc(-c4c(C)noc4C)ccc32)CC1 (stereo not given in full)
GI50 (SK-MEL-2 melanoma): 4.46 µM | TGI (SK-MEL-2 melanoma): 18.4 µM | GI50 (SK-OV-3 ovarian): 3.96 µM | TGI (SK-OV-3 ovarian): 16.2 µM | GI50 ([…]-0 renal): 2100 nM | TGI (786-0 renal): 19.9 µM | GI50 (HCT-15 colon): 2950 nM | TGI (HCT-15 colon): 14.8 µM | GI50 (K-562 leukemia): 1510 nM | TGI (K-562 leukemia): 16.1 µM | GI50 (OVCAR-4 ovarian): 1790 nM | TGI (OVCAR-4 ovarian): 7.76 µM | GI50 (OVCAR-8 ovarian): 2800 nM | TGI (OVCAR-8 ovarian): 15.8 µM | GI50 (MALME-3M melanoma): 1040 nM | TGI (MALME-3M melanoma): 6.35 µM | GI50 (DU-145 prostate): 12.8 µM | TGI (DU-145 prostate): 60.4 µM | GI50 (MDA-MB-468 breast): 2940 nM | TGI (MDA-MB-468 breast): 18.6 µM | GI50 (HCT-116 colon): 4.48 µM | TGI (HCT-116 colon): 18.4 µM | GI50 (OVCAR-3 ovarian): 2900 nM | TGI (OVCAR-3 ovarian): 16.1 µM | GI50 (U251 glioblastoma): 12 µM | TGI (U251 glioblastoma): 25.9 µM | GI50 (M14 melanoma): 568 nM | TGI (M14 melanoma): 14.9 µM | GI50 (MOLT-4 leukemia): 2050 nM | TGI (MOLT-4 leukemia): 14 µM | GI50 (ACHN renal): 3.62 µM | TGI (ACHN renal): 16.6 µM | GI50 (SNB-75 CNS): 12.3 µM | TGI (SNB-75 CNS): 26 µM | GI50 (HL-60(TB) leukemia): 49.7 nM | TGI (HL-60(TB) leukemia): 1200 nM | GI50 (A549 NSCLC): 8.03 µM | TGI (A549 NSCLC): 23.5 µM | GI50 (MCF7 breast): 40.2 nM | TGI (MCF7 breast): 12.4 µM | GI50 (HOP-92 NSCLC): 4.57 µM | TGI (HOP-92 NSCLC): 18.8 µM | GI50 (NCI-H226 lung): 1070 nM | TGI (NCI-H226 lung): 12.1 µM | GI50 (IGROV1 ovarian): 3.36 µM | TGI (IGROV1 ovarian): 15.5 µM | GI50 (UACC-257 melanoma): 3.1 µM | TGI (UACC-257 melanoma): 17.4 µM | GI50 (NCI-H460 NSCLC): 3.29 µM | TGI (NCI-H460 NSCLC): 16.8 µM | GI50 (SN12C renal): 12 µM | TGI (SN12C renal): 25.4 µM | GI50 (NCI-H23 lung): 10.2 µM | TGI (NCI-H23 lung): 25.1 µM | GI50 (RXF 393 renal): 1240 nM | TGI (RXF 393 renal): 5.22 µM | GI50 (NCI-H522 lung): 1380 nM | TGI (NCI-H522 lung): 12.2 µM | GI50 (HT29 colon): 1600 nM | TGI (HT29 colon): 13.7 µM | GI50 (COLO 205 colon): 3.44 µM | TGI (COLO 205 colon): 18.9 µM | GI50 (NCI-H322M lung): 3.02 µM | TGI (NCI-H322M lung): 15.6 µM | GI50 (UACC-62 melanoma): 385 nM | TGI (UACC-62 melanoma): 12.1 µM | GI50 (HOP-62 NSCLC): 2920 nM | TGI (HOP-62 NSCLC): 15.4 µM | GI50 (HS 578T breast): 716 nM | TGI (HS 578T breast): 14.2 µM | GI50 (SW-620 colon): 13.9 µM | TGI (SW-620 colon): 27.5 µM | GI50 (KM12 colon): 13.6 µM | TGI (KM12 colon): 28.3 µM | GI50 (SF-268 CNS): 11.9 µM | TGI (SF-268 CNS): 25.6 µM | GI50 (UO-31 renal): 2130 nM | TGI (UO-31 renal): 13.8 µM | GI50 (OVCAR-5 ovarian): 11.3 µM | TGI (OVCAR-5 ovarian): 58.7 µM | GI50 (A498 renal): 6.19 µM | TGI (A498 renal): 19.4 µM | GI50 (MDA-MB-435 melanoma): 7.03 µM | TGI (MDA-MB-435 melanoma): 23.9 µM | GI50 (SF-539 CNS): 5.76 µM | TGI (SF-539 CNS): 19 µM | GI50 (SK-MEL-5 melanoma): 489 nM | TGI (SK-MEL-5 melanoma): 8.77 µM | GI50 (SNB-19 CNS): 11.5 µM | TGI (SNB-19 CNS): 27.6 µM | GI50 (SF-295 CNS): 5.05 µM | TGI (SF-295 CNS): 20 µM | GI50 (CAKI-1 renal): 532 nM | TGI (CAKI-1 renal): 13.2 µM | GI50 (SR leukemia): 1220 nM | TGI (SR leukemia): 13.8 µM | GI50 (PC-3 prostate): 3.97 µM | TGI (PC-3 prostate): 19.5 µM | GI50 (BT-549 breast): 2270 nM | TGI (BT-549 breast): 15.5 µM | GI50 (MDA-MB-231 breast): 3.05 µM | TGI (MDA-MB-231 breast): 16.2 µM | GI50 (EKVX NSCLC): 15.6 µM | TGI (EKVX NSCLC): 43.2 µM | GI50 (SK-MEL-28 melanoma): 7.88 µM | TGI (SK-MEL-28 melanoma): 21.6 µM | GI50 (TK-10 renal): 1550 nM | TGI (TK-10 renal): 11.8 µM | GI50 (T-47D breast): 1870 nM | TGI (T-47D breast): 7.11 µM

From PubChem BioAssay (NCI)
